Measurements reported in US20100249018A1, “COMPOSITION AND METHOD FOR PREVENTING AND TREATING IMMUNE-RELATED DISORDER” (priority 2007, published 2010).
Square brackets hold non-standard residues; d marks the D form. Ends that are not written are not given here. * marks the point of attachment. Boc = CC(C)(C)OC(=O)*; For = O=C*

Columns and labels:
CLP mice = assay: Survival in CLP (cecal ligation and puncture) sepsis mouse model; format: in vivo; conditions: for therapeutic effect of FPR ligands and scrambled peptide / therapeutic effect of WKYMVm analogs on experimental sepsis: 4 mg/kg subcutaneous four times at 2, 14, 26, 38 h post-CLP; for therapeutic effect of FPR ligands and scrambled peptide: FIG. 1g; for reversal of the therapeutic effects of WKYMVm by antagonist pre-treatment: antagonist 4 mg/kg subcutaneous 2 h before CLP and 2 h before each WKYMVm (4 mg/kg) treatment, FIG. 1d; for therapeutic effect of WKYMVm analogs on experimental sepsis: ICR mice, survival up to 10 days, FIG. 1h
Description: Male WT ICR mice and IL-12R 2-, IFN-γ-deficient, and WT C57BL/6 mice (kindly donated from Y. C. Sung, POSTECH, Republic of Korea) were used for experimental sepsis model, as previously described (Yan, J. J., Nat. Med. 10:161-167, 2004). All experiments involving animals adhered to the guidelines and received the approval of the Institutional Review Committee for Animal Care and Use at Dong-A University. For CLP, mice were anesthetized with pentothal sodium (50 mg/kg, intraperitoneal) and a small abdominal midline incision was made to expose the cecum. The cecum was then ligated below the ileocecal valve, punctured twice through both surfaces (or once for the measurement of cytokine production) using a 22-gauge needle and the abdomen was closed. Sham CLP mice were subjected to the same procedure, but without ligation and puncture of the cecum. Survival was monitored once daily for 10 days.
To investigate whether WKYMVm has a therapeutic effect on experimental sepsis, CLP was performed on albino ICR (Institute of Cancer Research) mice, and their survival was monitored for up to 10 days. […] Various doses of WKYMVm were injected subcutaneously four times into CLP mice at 2, 14, 26, and 38 h post-CLP.
To examine the effect of WKYMVm treatment, mice were injected subcutaneously with various doses of the peptide or with PBS as a negative control beginning 2 h after CLP. […] Various doses of WKYMVm were injected subcutaneously four times into CLP mice at […] post-CLP.
CLP mice were given zero, one, two, three, four, or five injections of WKYMVm (4 mg/kg, subcutaneous).
To evaluate the roles of FPR1 and FPR2, an FPR1 antagonist [N-t-butoxycarbonyl-Phe-Leu-Phe-Leu-Phe (Boc-PLPLP) (SEQ ID NO:12)] (La, M., et al., FASEB J. 15:2247-2256) and an FPR2 antagonist [Trp-Arg-Trp-Trp-Trp-Trp; WRWWWW (WRW^4) (SEQ ID NO:13)] (Bae, Y. S et al., J. Immunol. 173:607-614.) were administered prior to WKYMVm treatment in CLP mice. […] Boc-PLPLP (4 mg/kg), WRW^4 (4 mg/kg), or Boc-PLPLP (4 mg/kg)+WRW^4 (4 mg/kg) was injected subcutaneously 2 h before CLP. After CLP, Boc-PLPLP (4 mg/kg) or WRW^4 (4 mg/kg) was injected subcutaneously four times at 12-h intervals 2 h before WKYMVm treatment (4 mg/kg, subcutaneous).
Statistical analysis. Survival data were analyzed using the log-rank test. All other data were evaluated using ANOVA. The Bonferroni test was used for post hoc comparisons and statistical significance was set a priori at P<0.05.
FPR-family agonists (WKYMVm (SEQ ID NO:1), WKYMVM(SEQ ID NO:14), fMLF(SEQ ID NO:15) and MMK-1 (SEQ ID NO:16)) or scrambled peptide (VWMYmK: SEQ ID NO: 17) (4 mg/kg, respectively) were injected subcutaneously four times to CLP mice at 2, 14, 26, and 38 h post-CLP.
To investigate whether the analogs of WKYMVm(SEQ ID NO:1), WRYMVm(SEQ ID NO: 2), WKWMVm(SEQ ID NO: 3), WKRMVm(SEQ ID NO: 4), WKFMVm(SEQ ID NO: 5), WHYMVm(SEQ ID NO: 6), WKYMYm(SEQ ID NO: 7), WKYMFm(SEQ ID NO: 8), WKYMWm(SEQ ID NO: 9), WKYMVV(SEQ ID NO: 10) and WKEMVm(SEQ ID NO: 11) have therapeutic effects on experimental sepsis, CLP was performed on albino ICR (Institute of Cancer Research) mice, and their survival was monitored for up to 10 days. […] 4 mg/kg of WKYMVm or each analog of WKYMVm was injected subcutaneously four times into CLP mice at 2, 14, 26, and 38 h post-CLP (FIG. 1h).
To investigate the role of Th1 cytokines (IL-12 and IFN-γ) on WKYMVm-induced survival effect after sepsis, the CLP model was applied to IL-12Rβ2- and IFN-γ-deficient mice (C57BL/6 background). […] WT C57BL/6 or IL-12Rβ2-deficient mice were subcutaneously injected with WKYMVm (4 mg/kg) or PBS four times to CLP mice 2, 14, 26, and 38 h post-CLP. In FIG. 5d, WT C57BL/6 or IFN-γ-deficient mice were subcutaneously injected with WKYMVm (4 mg/kg) or PBS four times to CLP mice 2, 14, 26, and 38 h post-CLP. Data are expressed as the mean±standard error. *P<0.05; **P<0.01 compared with vehicle (c, d). n=10-16 mice per group (c,d) […]

[1] = tested on: E. coli ingested by mouse neutrophils; assay: Neutrophil bactericidal activity in vitro; format: cell-based; conditions: antagonist 10 μM added 30 min prior to WKYMVm (100 nM); FIG. 3b
Description: To determine whether WKYMVm treatment increases bactericidal activity in vitro, mouse neutrophils were allowed to ingest E. coli for 1 h and were then stimulated with 0.1-1000 nM WKYMVm for 20 min. […] Adherent neutrophils were incubated with 10^6 opsonized E. coli for 1 h, and stimulated with vehicle (PBS) or WKYMVm (0.1, 1, 10, 100, and 1000 nM) for 1 h.
Because FPR1 and FPR2 are expressed in neutrophils (data not shown), this experiment investigated the roles of FPR1-1 and FPR2-mediated pathways in WKYMVm-induced bactericidal activity. […] Mouse neutrophils were isolated from peripheral blood using a Histopaque-1077 solution (Sigma) as described previously (Bae, Y. S., et al., J. Immunol. 171:6807-6813, 2003). Boc-PLPLP (10 μM), WRW^4 (10 μM), or Boc-PLPLP (10 μM)+WRW^4 (10 μM) was added 30 min prior to the addition of WKYMVm (100 nM). The number of viable bacteria in the neutrophils was then determined.
Neutrophil bactericidal activity was measured according to the method of Yan, J. J., et al., Nat. Med. 10:161-167, 2004. […] After washing away the unengulfed E. coli, the number of viable bacteria in the neutrophils was determined before and after incubation with several concentrations of WKYMVm or vehicle for 1 h. The percentage of bacteria killed was calculated as 100×(1−number of CFU after WKYMVm stimulation/number of CFU before WKYMVm stimulation). […]

mouse neutrophils = assay: H2O2 generation in mouse neutrophils in vitro; format: cell-based; conditions: antagonist 10 μM prior to WKYMVm (100 nM); FIG. 3d
Description: Because the bactericidal effect of phagocytes is related with H2O2 production (Hampton, M. B., et al., Blood. 92:3007-3017), the effect of WKYMVm on H2O2 generation in mouse neutrophils was evaluated. […] Mouse neutrophils were stimulated with vehicle (PBS) or WKYMVm (1-1000 nM) for 15 min. Neutrophils isolated from sham, CLP−, or CLP+WKYMVm-treated mice were stimulated with 100 nM PMA for 1 h. Freshly isolated neutrophils from normal mice were stimulated with various concentrations of WKYMVm for 10 min in the presence of cytochalasin B (5 μM).
To investigate the role of FPR1 and FPR2, neutrophils were preincubated with Boc-PLPLP (10 μM), WRW^4 (10 μM), or vehicle (DMSO) for 30 minutes prior to adding WKYMVm (100 nM) for 10 min. H2O2 in the supernatant was measured using an H2O2 assay kit (Molecular Probes).
Boc-PLPLP (10 μM), WRW^4 (10 μM), or Boc-PLPLP (10 μM)+WRW^4 (10 μM) was added […] prior to the addition of WKYMVm (100 nM).

[2] = tested on: splenocytes of Th1 mouse model; assay: Splenocyte proliferation assay, Th1 mouse model (OVA+LPS); format: in vivo; conditions: OVA+LPS immunized mice; 72 h incubation with OVA; compared to sham-treated mice; FIG. 4e
Description: To generate the Th1 and Th2 mouse models (FIG. 4b), 6-week-old C57BL/6 WT mice were twice immunized intraperitoneally with 75 μg of OVA+10 μg of LPS or 2 mg of alum on days 0 and 7 and then challenged intraperitoneally with 50 μg of OVA on days 14, 15, and 16. Isolated splenocytes were subjected to a cell proliferation assay with and without OVA incubation. Briefly, splenocytes were harvested in RPMI 1640 media and incubated (2×10^5 cells/well) in 96-well flat-bottom plates at 37° C. for 96 h in medium alone or with 5, 50 or 500 μg OVA/ml. The example measured cellular thymidine incorporation following a 72 h culture period with 1 μCi [^3H]thymidine.
Because IL-2 promotes T-cell proliferation (Benczik, M., et al., Immunol. Invest. 33:109-142), the effect of FPR activation by WKYMVm on Th1 and Th2 cell proliferation was evaluated using inert antigens. WKYMVm (4 mg/kg) was injected subcutaneously four times into CLP mice 2, 14, 26, and 38 h post-CLP. Separate groups of animals were given sham, CLP+PBS, or CLP+WKYMVm treatment. Data are expressed as the mean±standard error (n=8). *P<0.05; **P<0.01 compared with CLP+PBS. […]
Protocol for the Th1 and Th2 mice (FIG. 4d) was described below. […] Data are expressed as the mean±standard error (n=5 for e, f), and * indicates P<0.05 compared to OVA+PBS group; ** indicates P<0.05 versus the other groups. […]

## LESIFRSLLFRVM (MMK-1 peptide) [FPR-family agonist]
CLP mice
  therapeutic effect of FPR ligands and scrambled peptide: lower than that of WKYMVm

## N-formyl-Met-Leu-Phe (For-Met-Leu-Phe) [fMLF, FPR-family agonist]
CLP mice
  therapeutic effect of FPR ligands and scrambled peptide: lower than that of WKYMVm

## N-t-butoxycarbonyl-Phe-Leu-Phe-Leu-Phe (Boc-FLFLF) [Boc-PLPLP, FPR1 antagonist]
CLP mice
  reversal of the therapeutic effects of WKYMVm by antagonist pre-treatment: only partly reversed
[1]
  WKYMVm-induced bactericidal activity after antagonist pre-treatment: significantly inhibited bactericidal activity
Mouse neutrophils
  reversal of WKYMVm-induced H2O2 generation by antagonist pre-treatment: partly reversed
[2]
  splenocyte proliferation, Th1 mouse model: inhibited

## Val-Trp-Met-Tyr-D-Met-Lys (VWMY[dM]K) [VWMYmK]
CLP mice
  therapeutic effect of FPR ligands and scrambled peptide: no therapeutic effect

## WHYMVm: analog of WKYMVm (WHYMV[dM])
CLP mice
  therapeutic effect of WKYMVm analogs on experimental sepsis: no therapeutic effects

## WKEMVm: analog of WKYMVm (WKEMV[dM])
CLP mice
  therapeutic effect of WKYMVm analogs on experimental sepsis: no therapeutic effects

## WKFMVm: analog of WKYMVm (WKFMV[dM])
CLP mice
  therapeutic effect of WKYMVm analogs on experimental sepsis: no therapeutic effects

## WKRMVm: analog of WKYMVm (WKRMV[dM])
CLP mice
  therapeutic effect of WKYMVm analogs on experimental sepsis: no therapeutic effects

## WKWMVm: analog of WKYMVm (WKWMV[dM])
CLP mice
  therapeutic effect of WKYMVm analogs on experimental sepsis: no therapeutic effects

## WKYMFm: analog of WKYMVm (WKYMF[dM])
CLP mice
  therapeutic effect of WKYMVm analogs on experimental sepsis: no therapeutic effects

## WKYMVV: analog of WKYMVm (WKYMVV)
CLP mice
  therapeutic effect of WKYMVm analogs on experimental sepsis: no therapeutic effects

## WKYMWm: analog of WKYMVm (WKYMW[dM])
CLP mice
  therapeutic effect of WKYMVm analogs on experimental sepsis: no therapeutic effects

## WKYMYm: analog of WKYMVm (WKYMY[dM])
CLP mice
  therapeutic effect of WKYMVm analogs on experimental sepsis: no therapeutic effects

## WRWWWW [WRW^4]
CLP mice
  reversal of the therapeutic effects of WKYMVm by antagonist pre-treatment: completely reversed
[1]
  WKYMVm-induced bactericidal activity after antagonist pre-treatment: significantly inhibited bactericidal activity
Mouse neutrophils
  reversal of WKYMVm-induced H2O2 generation by antagonist pre-treatment: partly reversed
[2]
  splenocyte proliferation, Th1 mouse model: inhibited

## WRYMVm: analog of WKYMVm (WRYMV[dM])
CLP mice
  therapeutic effect of WKYMVm analogs on experimental sepsis: no therapeutic effects
